Assay results published in patent publication US10857150B2, “Use of sanglifehrin macrocyclic analogues as anticancer compounds” (NEUROVIVE PHARMACEUTICAL AB, priority 2016, dated 2020).

Tests used:
[1] = system: LIXC-066; experiment: 7-day proliferation assay, Calcein AM staining; type: cell-based, human; details: Homo sapiens, 168 h
Experimental: (§1) The cells were seeded in a 96-well plate, test compound or DMSO was added and the plate was incubated for additional four days or 7 days (Calcein AM assay). Viable cell counts were determined after detachment by treatment with trypsin either by trypan blue exclusion, flow cytometry, indirectly by measuring ATP content by addition of an ATP measuring reagent (CellTiter Glo), or Calcein AM, prepared according to the instruction of the manufacturer directly.
(§2) XLfit software ((Fit model: Dose response one site/^F(x)[fit=(A+((B−A)/(1+((C/x)^D))))]) for curve fitting and IC50 calculation) was used for curve fitting and IC50 calculation.
(§3) In vitro evaluation of a sanglifehrin macrocyclic analogue (1) for anticancer activity against human hepatocyte cancer cell lines in comparison with NV556 (10) a 7-day proliferation assay. The cell numbers were determined by Calcein AM staining as described in the methods section. Data are from one experiment with each cell line testing duplicate samples of 9 concentrations of each compound. Both compounds were included in each experiment.
as §3, with “the cyclophilin inhibitor alisporivir and the kinase inhibitor sorafenib in” for “NV556 (10)”, “one single” for “one”, “or means of two independent experiments” for “with each cell line”, “All three” for “Both”

[2] = system: LIXC-086; experiment: 7-day proliferation assay, Calcein AM staining; type: cell-based, human; details: Homo sapiens, 168 h
Experimental: as §1, §2, §3
as §3, with “the cyclophilin inhibitor alisporivir and the kinase inhibitor sorafenib in” for “NV556 (10)”, “one single” for “one”, “or means of two independent experiments” for “with each cell line”, “All three” for “Both”

[3] = system: LIXC-006; experiment: 7-day proliferation assay, Calcein AM staining; type: cell-based, human; details: Homo sapiens, 168 h
Experimental: as §1, §2, §3
as §3, with “the cyclophilin inhibitor alisporivir and the kinase inhibitor sorafenib in” for “NV556 (10)”, “one single” for “one”, “or means of two independent experiments” for “with each cell line”, “All three” for “Both”

[4] = system: Hep3B2.1-7-Luc; experiment: 7-day proliferation assay, Calcein AM staining; type: cell-based, human; details: Homo sapiens, 168 h
Experimental: as §1, §2, §3
as §3, with “the cyclophilin inhibitor alisporivir and the kinase inhibitor sorafenib in” for “NV556 (10)”, “one single” for “one”, “or means of two independent experiments” for “with each cell line”, “All three” for “Both”

[5] = system: LIXC-011; experiment: 7-day proliferation assay, Calcein AM staining; type: cell-based; details: Homo sapiens, 168 h, Example 6, n 1
Experimental: as §1, §2
as §3, with “the cyclophilin inhibitor alisporivir and the kinase inhibitor sorafenib in” for “NV556 (10)”, “one single” for “one”, “or means of two independent experiments” for “with each cell line”, “All three” for “Both”

[6] = system: LIXC-003; experiment: 7-day proliferation assay, Calcein AM staining; type: cell-based; details: Homo sapiens, 168 h, Example 6, n 2
Experimental: as §1, §2
as §3, with “the cyclophilin inhibitor alisporivir and the kinase inhibitor sorafenib in” for “NV556 (10)”, “one single” for “one”, “or means of two independent experiments” for “with each cell line”, “All three” for “Both”

[7] = system: LIXC-012; experiment: 7-day proliferation assay, Calcein AM staining; type: cell-based; details: Homo sapiens, 168 h, Example 6, n 2
Experimental: as §1, §2
as §3, with “the cyclophilin inhibitor alisporivir and the kinase inhibitor sorafenib in” for “NV556 (10)”, “one single” for “one”, “or means of two independent experiments” for “with each cell line”, “All three” for “Both”

[8] = system: HepG2; experiment: 7-day proliferation assay, Calcein AM staining; type: cell-based; details: Homo sapiens, 168 h, Example 6, n 2
Experimental: as §1, §2
as §3, with “the cyclophilin inhibitor alisporivir and the kinase inhibitor sorafenib in” for “NV556 (10)”, “one single” for “one”, “or means of two independent experiments” for “with each cell line”, “All three” for “Both”

[9] = system: LIXC-004; experiment: 7-day proliferation assay, Calcein AM staining; type: cell-based; details: Homo sapiens, 168 h, Example 6, n 2
Experimental: as §1, §2
as §3, with “the cyclophilin inhibitor alisporivir and the kinase inhibitor sorafenib in” for “NV556 (10)”, “one single” for “one”, “or means of two independent experiments” for “with each cell line”, “All three” for “Both”

[10] = system: LIXC-002; experiment: 7-day proliferation assay, Calcein AM staining; type: cell-based, human; details: Homo sapiens, 168 h, Example 5, one experiment
Experimental: as §1, §2, §3

[11] = system: HepG2; experiment: combination with sorafenib, 7-day proliferation assay (Calcein AM), isobologram; type: cell-based, human; details: combination with sorafenib at different doses
Experimental: as §1
To test for potential synergistic activity with sorafenib, compound 1 (A) was added at a range of concentrations along with a range of concentrations of sorafenib (B) against a liver cancer cell line, HepG2 in a 7-day proliferation assay (Calcein AM assay, described in the methods section). Data are from one single experiment representative of two independent experiments testing duplicate samples. The data was plotted in a normalized isobologram (Chou and Martin. CompuSyn for Drug Combinations: PC Software and User's Guide: A Computer Program for Quantitation of Synergism and Antagonism in Drug Combinations, and the Determination of IC50 and ED50 and LD50 Values, ComboSyn Inc, Paramus, (NJ), 2005) and is shown in FIG. 7. Values at the lower left below the hypotenuse indicate synergism.

[12] = system: human hepatocyte cancer cell lines; experiment: 7-day proliferation assay, comparison of potency over the cell lines; type: cell-based
Experimental: as §1, §3
as §3, with “the cyclophilin inhibitor alisporivir and the kinase inhibitor sorafenib in” for “NV556 (10)”, “one single” for “one”, “or means of two independent experiments” for “with each cell line”, “All three” for “Both”

| SMILES | IC50 ([1]; Example 6, n 1) [µM] | IC50 ([2]; Example 6, n 1) [µM] | IC50 ([3]; Example 6, n 2) [µM] | IC50 ([4]; Example 6, n 1) [µM] | IC50 [5] [µM] | IC50 [6] [µM] | IC50 [7] [µM] | IC50 [8] [µM] | IC50 [9] [µM] | IC50 [10] [µM] | IC50 ([1]; Example 5, one experiment) [µM] | IC50 ([2]; Example 5, one experiment) [µM] | IC50 ([3]; Example 5, one experiment) [µM] | IC50 ([4]; Example 5, one experiment) [µM] | growth inhibitory effect of simultaneous treatment [11] | potency relative to NV556 (10) ([12]; Example 5, all cases (5 cell lines)) | potency relative to alisporivir ([12]; Example 6, all cases (9 cell lines)) | potency relative to sorafenib ([12]; Example 6, in 8/9 cases) |
| --- | --- | --- | --- | --- | --- | --- | --- | --- | --- | --- | --- | --- | --- | --- | --- | --- | --- | --- |
| C/C=C/C[C@@H](C)[C@@H](O)[C@H]1C(=O)N[C@@H](CC)C(=O)N(C)[C@H](C)C(=O)N(CC)[C@@H](C(C)C)C(=O)N[C@@H](C(C)C)C(=O)N(C)[C@@H](CC(C)C)C(=O)N[C@@H](C)C(=O)N[C@H](C)C(=O)N(C)[C@@H](CC(C)C)C(=O)N(C)[C@@H](CC(C)C)C(=O)N(C)[C@@H](C(C)C)C(=O)N1C [Alisporivir, alisporivir] | 1.64 | 2.25 | 0.993 | 2.89 | 8.71 | 4.73 | 3.22 | 3.13 | 3.81 |  |  |  |  |  |  |  |  |  |
| CNC(=O)c1cc(Oc2ccc(NC(=O)Nc3ccc(Cl)c(C(F)(F)F)c3)cc2)ccn1 [Sorafenib, sorafenib] |  |  | 3.96 |  | 0.538 | 0.004 | 1.15 | 2.96 | 2.19 |  |  |  |  |  |  |  |  |  |
| CC(=O)CC[C@H]1C(=O)N[C@@H](C(C)C)C(=O)N[C@@H](Cc2cc(O)cc(F)c2)C(=O)N2CCCC(N2)C(=O)O[C@H](/C(C)=C/C=C/C(=O)OC(C)(C)C)C/C=C/C=C/[C@H](O)[C@H](C)[C@H]1O (stereo partly drawn) [Compound 1] | 0.169 | 0.686 | 0.006 | 0.009 | 0.012 | 0.008 | 0.065 | 0.007 | 0.004 | < 0.003 | 0.093 | 0.905 | 0.009 | 0.011 | synergistic growth inhibitory effect | 3-10 fold | 3-1000 fold | 3-600 fold |
